Patent US3993683A, “Biphenylyl derivatives” (Boehringer Ingelheim GmbH, priority 1974, dated 1976)
Like-named read-outs stand apart in the source and are kept apart here.

How the values were obtained:
[1] = test system: thrombocyte aggregation in the platelet-rich plasma of healthy human test subjects; test: Inhibition of collagen-induced thrombocyte aggregation (method of Born and Cross); assay type: cell-based; conditions: 10^-4 mol/liter test compound, 10 minutes incubation at 37° C, vs untreated controls; for inhibition at 100 µM: Homo sapiens, 10 min
Text: 1. The inhibiting action upon thrombocyte aggregation was ascertained by the method of Born and Cross, J. Physiol. 170, 397 (1964), in the platelet-rich plasma of healthy human test subjects, by photometrically ascertaning and registering the rate of decrease of the optical density after addition of commercial collagen containing 1 mgm of collagen fibrils per ml. The angle of inclination of the density curve is a measure of the rate of aggregaton (V max.). The point on the curve which corresponded to the greatest lightpermeability was used for calculation of the optical density (o.D.).
The collagen doses were held to a minimum, but still sufficiently large to result in an irreversible aggregation. Prior to addition of collagen, each plasma sale was incubated for 10 minutes at 37° C with various amounts of the test compound. To provoke maximum aggregation, about 0.01 ml of the collagen solution was added to 1 ml of platelet-rich plasma.
The values in Table I below represent the inhibition of the aggregation rate in % (V max) and the alteration of the optical density (O.D.) in %, compared with the untreated controls, i.e. without addition of the test compound.

non-anesthetized mice = test: Prolonging effect upon the bleeding time (method of Duke); assay type: in vivo; conditions: 10 mgm/kg per os, vs untreated animals; for change in vivo at 10 mg/kg: Mus musculus, po
Text: 2. The prolonging effect upon the bleeding time was ascertained by the method of Duke, J. Amer. Med. Assoc. 15, 1185 (1910). 10 mgm/kg of the test compound were given per os to non-anesthetized mice. One or three hours after administration of the test compound, about 0.5 mm was cut off from the tail of each animal, and the exuded blood was carefully soaked up with filter paper at intervals of 30 seconds. The number of drops of blood so obtained was used as a measure for the bleeding time compared to untreated animals (5 animals/test).

white mice = test: Acute toxicity after oral administration of a single dose; assay type: in vivo; conditions: observation time 14 days
Description: (§1) The acute toxicity of the test compounds was determined in white mice (observation time: 14 days) after oral administration of a single dose.

[2] = as above; assay type: in vivo; conditions: mouse, in vivo, po, white mice, observation time 14 days
Description: as §1

[3] = 1 h, 1 hour after administration, read-out: Prolongation of bleeding time in % after 1 hour
[4] = 3 h, 3 hours after administration, read-out: Prolongation of bleeding time in % after 3 hours
[5] = read-out: Inhibition in % of the aggregation rate (V max)
[6] = read-out: Inhibition in %: alteration of the optical density (O.D.)

SMILES	Inhibition in % of the aggregation rate (V max) [1]	Inhibition in %: alteration of the optical density (O.D.) [1]	change in vivo at 10 mg/kg (non-anesthetized mice; [3])	change in vivo at 10 mg/kg (non-anesthetized mice; [4])	animals died (at the stated dose) (white mice)	Prolongation of bleeding time in % after 1 hour (non-anesthetized mice; 1 hour after administration)	Prolongation of bleeding time in % after 3 hours (non-anesthetized mice; 3 hours after administration)	inhibition at 100 µM [1, 5]	inhibition at 100 µM [1, 6]	LD50 at 336 h [2]
COC(=O)C[S+]([O-])C(C)c1ccc(-c2ccccc2F)cc1 (single isomer, unassigned) [A, [1-(2'-fluoro-4-biphenylyl)-ethylsulfinyl]-acetic acid methyl ester]	32%	45%	136%	66%	1 out of 10	–	–	–	–	–
COC(=O)C[S+]([O-])C(C)c1ccc(-c2ccccc2F)cc1 (single isomer, unassigned) [B, [1-(2'-fluoro-4-biphenylyl)-ethylsulfinyl]-acetic acid methyl ester]	72%	81%	–	–	2 out of 5	142%	56%	–	–	–
COC(=O)C[S+]([O-])C(C)c1ccc(-c2ccccc2F)cc1 (single isomer, unassigned) [F, dextrorotatory [1-(2'-fluoro-4-biphenylyl)-ethylsulfinyl]-acetic acid methyl ester]	–	–	117%	–	–	–	–	20%	19%	–
COC(=O)C[S+]([O-])C(C)c1ccc(-c2ccccc2F)cc1 (single isomer, unassigned) [G, levorotatory [1-(2'-fluoro-4-biphenylyl)-ethylsulfinyl]-acetic acid methyl ester]	13%	27%	–	–	–	129%	–	–	–	–
CC(C)CCOC(=O)C[S+]([O-])C(C)c1ccc(-c2ccccc2F)cc1 (centres unmarked) [C, [1-(2'-fluoro-4-biphenylyl)-ethylsulfinyl]-acetic acid isoamyl ester]	–	–	112%	49%	1 out of 5	–	–	67%	82%	> 250 mg/kg
COC(=O)C[S+]([O-])C(C)(C)c1ccc(-c2ccccc2F)cc1 (centres unmarked) [D]	–	–	71%	–	2 out of 5	–	–	37%	48%	> 250 mg/kg
COC(=O)C[S+]([O-])CCC(C)c1ccc(-c2ccccc2)cc1 (centres unmarked) [E, [3-(4-biphenylyl)-butyl-(1)-sulfinyl]-acetic acid methyl ester]	–	–	188%	85%	0 out of 5	–	–	92%	95%	> 250 mg/kg
CNC(=O)C[S+]([O-])C(C)c1ccc(-c2ccccc2F)cc1 (centres unmarked) [H, [1-(2'-fluoro-4-biphenylyl)-ethylsulfinyl]-acetic acid methyl amide]	–	–	64%	–	0 out of 5	–	–	8%	13%	> 250 mg/kg
CC(c1ccc(-c2ccccc2F)cc1)[S+]([O-])CC(=O)N1CCCCC1 (centres unmarked) [I, [1-(2'-fluoro-4-biphenylyl)-ethylsulfinyl]-acetic acid piperidide]	–	–	122%	–	0 out of 5	–	–	85%	90%	> 250 mg/kg
CC(c1ccc(-c2ccccc2F)cc1)[S+]([O-])CC(=O)N1CC[S+]([O-])CC1 (centres unmarked) [J, [1-(2'-fluoro-4-biphenylyl)-ethylsulfinyl]-acetic acid-(1-oxido-thiomorpholide)]	–	–	149%	–	0 out of 5	–	–	16%	31%	> 250 mg/kg
C[S+]([O-])CC(O)c1ccc(-c2ccc(F)cc2)cc1 (centres unmarked) [K]	–	–	68%	30%	–	–	–	59%	73%	–
COC(=O)C[S+]([O-])CC(=O)c1ccc(-c2ccccc2)cc1 (centres unmarked) [L, [2-(4-biphenylyl)-2-oxo-ethylsulfinyl]-acetic acid methyl ester]	–	–	120%	78%	–	–	–	22%	47%	–
COC(=O)C[S+]([O-])CC(=O)c1ccc(-c2ccccc2F)cc1 (centres unmarked) [M, [2-(2'-fluoro-4-biphenylyl)-2-oxo-ethylsulfinyl]-acetic acid methyl ester]	–	–	90%	39%	–	–	–	97%	95%	–
O=C(O)C[S+]([O-])CC(=O)c1ccc(-c2ccc(F)cc2)cc1 (centres unmarked) [N, [2-(4'-fluoro-4-biphenyl)-2-oxo-ethylsulfinyl]acetic acid]	–	–	98%	37%	–	–	–	–	–	–
COC(=O)C[S+]([O-])C(C)c1ccc(-c2cccc(Cl)c2)cc1 (centres unmarked) [O, [1-(3'-chloro-4-biphenylyl)-ethylsulfinyl]-acetic acid methyl ester]	–	–	12%	–	0 out of 5	–	–	66%	76%	> 250 mg/kg
COC(=O)C[S+]([O-])C(C)c1ccc(-c2ccccc2[N+](=O)[O-])cc1 (centres unmarked) [P, [1-(2'-nitro-4-biphenylyl)ethylsulfinyl]-acetic acid methyl ester]	–	–	15%	–	0 out of 5	–	–	61%	74%	> 250 mg/kg
COC(=O)C[S+]([O-])C(C)c1ccc(-c2ccccc2F)c(F)c1 (centres unmarked) [Q, [1-(2,2'-difluoro-4-biphenylyl)-ethylsulfinyl]-acetic acid methyl ester]	–	–	73%	–	0 out of 5	–	–	48%	54%	> 250 mg/kg
COC(=O)C[S+]([O-])C(C)c1ccc(-c2ccc(Br)cc2)c(F)c1 (centres unmarked) [R, [1-(2-fluoro-4'-bromo-4-biphenylyl)-ethylsulfinyl]-acetic acid methyl ester]	–	–	50%	–	–	–	–	46%	64%	–
COC(=O)CS(=O)(=O)C(C)c1ccc(-c2ccccc2F)cc1 (centres unmarked) [S]	–	–	83%	27%	0 out of 5	–	–	45%	66%	> 250 mg/kg
CC(C)CCOC(=O)CS(=O)(=O)C(C)c1ccc(-c2ccccc2F)cc1 (centres unmarked) [T, [1-(2'-fluoro-4-biphenylyl)-ethylsulfonyl]-acetic acid isoamyl ester]	–	–	51%	–	0 out of 5	–	–	76%	83%	> 250 mg/kg
CC(c1ccc(-c2ccccc2F)cc1)S(C)(=O)=O (centres unmarked) [U, [1-(2'-fluoro-4-biphenylyl)-ethyl]-methylsulfone]	–	–	56%	–	0 out of 5	–	–	87%	90%	> 250 mg/kg
O=C(O)CS(=O)(=O)Cc1ccc(-c2ccc(Cl)cc2)cc1 [V, [(4'-chloro-4-biphenylyl)-methylsulfonyl]-acetic acid, reference compound]	–	–	3%	–	3 out of 10	–	–	6%	11%	> 250 mg/kg
